Experimental data taken from ChEMBL document CHEMBL4373699, “Structure-Guided Discovery of a Selective Mcl-1 Inhibitor with Cellular Activity” (J Med Chem, 2019).

Legend:
[1] = biological target: T1, Bcl-2-like protein 1 (Homo sapiens, UniProt Q07817); assay: Inhibition of Bcl-XL (unknown origin) by fluorescence polarization assay
[2] = biological target: T2, Induced myeloid leukemia cell differentiation protein Mcl-1 (Homo sapiens, UniProt Q07820); assay: biochemical
[3] = biological target: T3, Apoptosis regulator Bcl-2 (Homo sapiens, UniProt P10415); assay: biochemical
T3 sequence (P10415 whole entry, the tested form may be a part): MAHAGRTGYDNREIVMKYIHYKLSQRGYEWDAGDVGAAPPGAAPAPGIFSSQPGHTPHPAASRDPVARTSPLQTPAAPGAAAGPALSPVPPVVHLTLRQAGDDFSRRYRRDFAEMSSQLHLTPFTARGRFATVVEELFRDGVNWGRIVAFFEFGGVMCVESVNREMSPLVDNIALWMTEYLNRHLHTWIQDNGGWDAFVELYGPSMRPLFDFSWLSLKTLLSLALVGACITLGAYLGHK

[4] = biological target: T3, Apoptosis regulator Bcl-2; assay: Displacement of N-terminal fluorescein labelled Puma-BH3 peptide from human N-terminal thrombin cleavage site-fused/His6-tagged Bcl-2 expressed in Escherichia coliBL21(DE3) pLysS cells at 10 uM by fluorescence polarization assay relative to control
[5] = biological target: T1, Bcl-2-like protein 1; assay: Inhibition of Bcl-XL (unknown origin) at 10 uM by fluorescence polarization assay relative to control
[6] = biological target: T2, Induced myeloid leukemia cell differentiation protein Mcl-1; assay: biochemical; remark: listed apart in the source
Description: Binding affinity to TEV-fused His-tagged human Mcl-1 expressed in Escherichia coliBL21(DE3) pLysS cells by Isothermal Titration Calorimetry

[7] = biological target: T1, Bcl-2-like protein 1; assay: Inhibition of Bcl-XL (unknown origin) at 0.5 mM by fluorescence polarization assay relative to control
[8] = biological target: Cytochrome P450 3A4 (Homo sapiens, UniProt P08684); assay: Inhibition of human CYP3A4; assay type: ADME
Cytochrome P450 3A4, sequence (P08684 whole entry): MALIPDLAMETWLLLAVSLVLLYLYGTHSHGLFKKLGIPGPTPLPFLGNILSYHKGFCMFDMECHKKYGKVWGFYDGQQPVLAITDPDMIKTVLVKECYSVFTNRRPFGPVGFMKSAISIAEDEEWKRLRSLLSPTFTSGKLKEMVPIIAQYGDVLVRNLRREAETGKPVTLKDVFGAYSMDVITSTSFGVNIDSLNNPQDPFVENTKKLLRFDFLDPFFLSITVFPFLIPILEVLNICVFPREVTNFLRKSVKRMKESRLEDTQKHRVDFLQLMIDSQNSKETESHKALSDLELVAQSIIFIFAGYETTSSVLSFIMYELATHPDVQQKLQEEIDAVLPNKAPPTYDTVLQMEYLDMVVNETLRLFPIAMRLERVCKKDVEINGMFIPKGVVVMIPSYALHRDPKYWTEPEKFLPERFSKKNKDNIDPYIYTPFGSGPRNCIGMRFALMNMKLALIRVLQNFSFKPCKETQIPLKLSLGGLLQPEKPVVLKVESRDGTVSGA

[9] = biological target: Cytochrome P450 2D6 (Homo sapiens, UniProt P10635)
Cytochrome P450 2D6, sequence (P10635 whole entry): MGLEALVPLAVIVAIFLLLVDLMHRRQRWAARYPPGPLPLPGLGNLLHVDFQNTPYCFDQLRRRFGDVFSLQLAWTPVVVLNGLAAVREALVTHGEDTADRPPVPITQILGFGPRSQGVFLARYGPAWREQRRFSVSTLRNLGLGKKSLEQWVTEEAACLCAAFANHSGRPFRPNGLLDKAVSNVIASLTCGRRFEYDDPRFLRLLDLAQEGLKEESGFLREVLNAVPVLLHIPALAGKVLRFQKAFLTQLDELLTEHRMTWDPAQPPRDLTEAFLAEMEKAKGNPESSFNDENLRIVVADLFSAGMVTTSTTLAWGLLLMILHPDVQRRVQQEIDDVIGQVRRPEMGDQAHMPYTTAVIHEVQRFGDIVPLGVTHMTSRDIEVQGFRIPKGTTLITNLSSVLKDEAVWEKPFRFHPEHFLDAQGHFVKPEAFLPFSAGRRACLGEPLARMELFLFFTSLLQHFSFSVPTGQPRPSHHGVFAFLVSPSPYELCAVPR
Description: Inhibition of human CYP2D6

[10] = biological target: T4, Cytochrome P450 1A2 (Homo sapiens, UniProt P05177)
T4 sequence (P05177 whole entry): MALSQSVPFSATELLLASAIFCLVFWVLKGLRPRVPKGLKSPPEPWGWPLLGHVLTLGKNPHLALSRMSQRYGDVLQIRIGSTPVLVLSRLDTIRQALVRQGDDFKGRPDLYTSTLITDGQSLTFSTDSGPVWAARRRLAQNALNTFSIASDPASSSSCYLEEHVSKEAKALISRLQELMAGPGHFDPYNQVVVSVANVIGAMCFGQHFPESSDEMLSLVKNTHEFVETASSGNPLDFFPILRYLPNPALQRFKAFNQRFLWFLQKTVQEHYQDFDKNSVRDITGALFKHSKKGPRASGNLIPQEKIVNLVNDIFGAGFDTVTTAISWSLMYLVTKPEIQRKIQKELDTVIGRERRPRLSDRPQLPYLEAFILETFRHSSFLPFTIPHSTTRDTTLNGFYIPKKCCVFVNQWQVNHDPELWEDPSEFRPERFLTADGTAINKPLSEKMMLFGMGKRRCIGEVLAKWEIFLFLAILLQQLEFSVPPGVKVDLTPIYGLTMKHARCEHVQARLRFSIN
Description: Inhibition of human CYP1A2

[11] = biological target: Cytochrome P450 2C9 (Homo sapiens, UniProt P11712)
Cytochrome P450 2C9, sequence (P11712 whole entry): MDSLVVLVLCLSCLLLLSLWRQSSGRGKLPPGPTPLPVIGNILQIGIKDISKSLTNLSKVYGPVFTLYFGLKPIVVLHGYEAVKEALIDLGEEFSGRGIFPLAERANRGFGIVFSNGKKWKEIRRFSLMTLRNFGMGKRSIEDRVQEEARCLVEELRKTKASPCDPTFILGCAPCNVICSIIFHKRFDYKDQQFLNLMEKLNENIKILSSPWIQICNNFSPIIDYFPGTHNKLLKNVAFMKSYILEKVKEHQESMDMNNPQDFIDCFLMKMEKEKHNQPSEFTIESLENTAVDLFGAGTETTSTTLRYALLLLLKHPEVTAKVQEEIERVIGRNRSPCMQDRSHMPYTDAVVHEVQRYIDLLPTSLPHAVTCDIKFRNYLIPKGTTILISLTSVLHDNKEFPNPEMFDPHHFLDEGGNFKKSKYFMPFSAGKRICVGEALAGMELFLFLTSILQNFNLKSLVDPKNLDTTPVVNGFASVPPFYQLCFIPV
Description: Inhibition of human CYP2C9

[12] = human, plasma
Description: Fraction unbound in human plasma

[13] = mouse, plasma
Description: Fraction unbound in mouse plasma

[14] = in vivo; details: mouse, iv, 1 mg/kg
Description: Half-life in mouse at 1 mpk, iv

[15] = in vivo; details: mouse, plasma, iv, 1 mg/kg
Description: Plasma clearance in mouse at 1 mpk, iv

[16] = in vivo; details: mouse, iv, 1 mg/kg; remark: listed apart in the source
Description: AUCt in mouse at 1 mpk, iv

[17] = in vivo; details: mouse, iv, 1 mg/kg; remark: listed apart in the source
Description: Volume of distribution in mouse at 1 mpk, iv

[18] = in vivo; details: mouse, po, 3 mg/kg
Description: Cmax in mouse at 3 mpk, po

[19] = in vivo; details: mouse, po, 3 mg/kg; remark: listed apart in the source
Description: Half-life in mouse at 3 mpk, po

[20] = in vivo; details: mouse, po, 3 mg/kg; remark: listed apart in the source
Description: AUCt in mouse at 3 mpk, po

[21] = in vivo; details: mouse, po, 3 mg/kg; remark: listed apart in the source
Description: Oral bioavailability in mouse at 3 mpk

T1 sequence (Q07817 whole entry): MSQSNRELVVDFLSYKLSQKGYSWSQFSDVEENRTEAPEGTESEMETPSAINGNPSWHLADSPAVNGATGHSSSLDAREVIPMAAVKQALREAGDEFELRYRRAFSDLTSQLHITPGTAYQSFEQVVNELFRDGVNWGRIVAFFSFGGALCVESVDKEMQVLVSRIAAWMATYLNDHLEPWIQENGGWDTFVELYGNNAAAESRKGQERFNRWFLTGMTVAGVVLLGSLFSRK
T2 sequence (Q07820 whole entry): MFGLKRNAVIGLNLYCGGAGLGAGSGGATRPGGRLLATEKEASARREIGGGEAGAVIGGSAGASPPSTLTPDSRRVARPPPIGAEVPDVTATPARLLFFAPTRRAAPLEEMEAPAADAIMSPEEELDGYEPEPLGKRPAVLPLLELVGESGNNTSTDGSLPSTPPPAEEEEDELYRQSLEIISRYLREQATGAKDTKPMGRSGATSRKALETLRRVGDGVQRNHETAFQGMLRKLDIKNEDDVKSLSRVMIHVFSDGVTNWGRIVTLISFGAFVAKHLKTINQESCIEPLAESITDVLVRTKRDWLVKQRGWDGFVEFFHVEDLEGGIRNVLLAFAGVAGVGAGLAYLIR

Structure (SMILES)	Ki [1] [µM]	Ki [2] [µM]	Ki [3] [µM]	also measured
CCc1sc2ncnc(N[C@@H](C(=O)O)c3ccccc3)c2c1-c1cccc(O)c1	319	7.7	470	–
CCc1sc2ncnc(O[C@H](Cc3ccccc3)C(=O)O)c2c1-c1ccccc1C (stereo in doubt; 9d) [listing 1 of 2 here]	–	–	–	inhibition [4]: 5%; inhibition [5]: 2%
CCc1sc2ncnc(N[C@H](C(=O)O)c3ccccc3)c2c1-c1cccc(O)c1	107	27	269	–
CCc1sc2ncnc(N[C@H](C)C(=O)O)c2c1-c1cccc(O)c1	–	45	5	–
CCc1sc2ncnc(O[C@H](Cc3ccccc3)C(=O)O)c2c1-c1cccc2[nH]ccc12 (stereo in doubt; 9a)	–	0.49	–	–
CCc1sc2ncnc(O[C@H](Cc3ccccc3)C(=O)O)c2c1-c1cccc(Cl)c1C	–	0.81	36	–
CCc1sc2ncnc(N[C@H](Cc3ccccc3OC)C(=O)O)c2c1-c1cccc(Cl)c1C	–	0.26	–	Kd [6]: 0.024 µM
CCc1sc2ncnc(N[C@H](Cc3ccccc3)C(=O)O)c2c1-c1cccc2[nH]ccc12 (stereo in doubt; 8b)	–	5.7	–	–
CCc1sc2ncnc(N[C@H](Cc3ccccc3OCCN3CCN(C)CC3)C(=O)O)c2c1-c1cccc(Cl)c1C	–	2	–	Kd [6]: 0.36 µM
CCc1sc2ncnc(N[C@@H](Cc3ccccc3)C(=O)O)c2c1-c1cccc(O)c1	–	58	–	–
CCc1sc2ncnc(N[C@H](C)C(=O)O)c2c1-c1ccccc1OCc1ccccc1	–	24	–	–
CCc1sc2ncnc(N[C@@H](C)C(=O)O)c2c1-c1cccc(C(F)(F)F)c1	–	21	437	–
CCc1sc2ncnc(O[C@H](Cc3ccccc3)C(=O)O)c2c1-c1cccc2[nH]ccc12 (stereo in doubt; 9b) [listing 1 of 2 here]	–	0.64	–	–
CCc1sc2ncnc(N[C@@H](C)C(=O)O)c2c1-c1ccc(SC)cc1	216	44	359	–
O=C(O)[C@@H](Cc1ccccc1)Nc1ncnc2sc(-c3ccccc3)c(-c3cccc(O)c3)c12	–	24	21	–
CCc1sc2ncnc(N[C@@H](C)C(=O)O)c2c1-c1ccccc1	–	110	418	–
CCc1sc2ncnc(O[C@H](C)C(=O)O)c2c1-c1ccc2ccccc2c1	–	6	–	–
C[C@@H](Nc1ncnc2scc(-c3cccc(O)c3)c12)C(=O)O	287	59	–	–
CCc1sc2ncnc(N[C@H](C)C(=O)O)c2c1-c1ccccc1C	–	100	–	–
CCc1sc2ncnc(O[C@H](Cc3ccccc3)C(=O)O)c2c1-c1cccc(Br)c1C (stereo in doubt; 10a)	–	5.3	–	–
CCc1sc2ncnc(N[C@H](C)C(=O)O)c2c1-c1ccc2ccccc2c1	–	110	–	–
CCc1sc2ncnc(NC(CO)C(=O)O)c2c1-c1cccc(Oc2ccc(F)cc2)c1 (racemic)	87	61	–	–
CCNS(=O)(=O)c1cccc(-c2nc(N[C@H](C)C(=O)O)c3c(-c4cccc(Oc5ccc(F)cc5)c4)c(CC)sc3n2)c1	39	50	1.3	–
CCc1sc2ncnc(N[C@H](Cc3ccccc3)C(=O)O)c2c1-c1cccc2[nH]ccc12 (stereo in doubt; 8a)	135	1.6	–	–

Structure (SMILES)	Ki [1] [µM]	Ki [2] [µM]	Ki [3] [µM]	also measured
CCc1sc2nc(S(C)(=O)=O)nc(N[C@H](C)C(=O)O)c2c1-c1cccc(Oc2ccc(F)cc2)c1	26	44	51	–
CCc1sc2ncnc(O[C@H](Cc3ccccc3)C(=O)O)c2c1-c1ccccc1C (stereo in doubt; 9d) [listing 2 of 2 here]	–	0.89	–	–
CCc1sc2ncnc(N[C@@H](C)C(=O)O)c2c1CC	–	50	74	IC50 [3]: 164 µM
CCc1sc2ncnc(N[C@@H](Cc3ccccc3)C(=O)O)c2c1-c1cccc(Oc2ccc(F)cc2)c1	18	77	24	–
CCc1sc2ncnc(N[C@H](Cc3ccccc3)C(=O)O)c2c1-c1cccc(O)c1	–	10	–	–
CCc1sc2ncnc(O[C@H](C)C(=O)O)c2c1-c1ccccc1C (stereo in doubt; 7d)	–	18	–	–
CCc1sc2ncnc(O[C@H](Cc3ccccc3)C(=O)O)c2c1-c1ccccc1C (stereo in doubt; 9c)	–	3.4	–	–
CCc1sc2ncnc(O[C@H](Cc3ccccc3)C(=O)O)c2c1-c1cccc2[nH]ccc12 (stereo in doubt; 9b) [listing 2 of 2 here]	–	–	–	inhibition [4]: 11%
CCc1sc2ncnc(N[C@@H](C)C(=O)O)c2c1-c1cccc(Oc2ccc(F)cc2)c1	33	130	98	–
CCc1sc2ncnc(N[C@H](C)C(=O)O)c2c1-c1cccc(Oc2ccc(F)cc2)c1	–	19	6.1	–
CCc1sc2ncnc(O[C@H](C)C(=O)O)c2c1-c1ccccc1C (stereo in doubt; 7e)	–	15	–	–
CCc1sc2ncnc(NC(C(=O)O)c3ccccc3)c2c1-c1cccc(Oc2ccc(F)cc2)c1 (racemic)	15	68	13	–
CCc1sc2ncnc(O[C@H](Cc3ccccc3)C(=O)O)c2c1-c1cc(CN2CCN(C)CC2)c(O)c(Cl)c1C	–	0.032	–	–
C[C@@H](Nc1ncnc2sc(-c3ccccc3)c(-c3cccc(O)c3)c12)C(=O)O	42	27	49	–
CCc1sc2ncnc(O[C@H](Cc3ccccc3)C(=O)O)c2c1-c1ccc(OCC(=O)N2CCN(C)CC2)c(Cl)c1C	–	0.021	–	–
CCc1sc2ncnc(O[C@H](Cc3ccccc3)C(=O)O)c2c1-c1cccc(Br)c1C (stereo in doubt; 10b)	–	0.33	–	–
CCc1sc2ncnc(O[C@H](Cc3ccccc3)C(=O)O)c2c1-c1cc2cc(CN(C)C)oc2c(Cl)c1C	–	0.076	–	–
CCc1sc2ncnc(O[C@H](C)C(=O)O)c2c1-c1ccc(C(C)C)cc1	–	8.1	–	–
C=C(C)c1sc2ncnc(N[C@H](Cc3ccccc3)C(=O)O)c2c1-c1cccc(Cl)c1C	–	19	5.4	inhibition [7]: 35%
CCc1sc2ncnc(N[C@H](CC3CCCCC3)C(=O)O)c2c1-c1cccc(Oc2ccc(F)cc2)c1	17	53	8.1	–
CCc1sc2ncnc(N[C@H](Cc3ccccc3)C(=O)O)c2c1-c1ccc(OCCN2CCN(C)CC2)c(Cl)c1C (stereo in doubt; 17b)	–	170	–	–
CCc1sc2ncnc(N[C@H](Cc3ccccc3)C(=O)O)c2c1-c1ccc(OCCN2CCN(C)CC2)c(Cl)c1C (stereo in doubt; 17a)	–	0.22	–	IC50 [8]: 5.2 µM; IC50 [9]: ≥ 20 µM; IC50 [10]: ≥ 20 µM; IC50 [11]: ≥ 20 µM; Fu [12]: 0.2%; Fu [13]: 0.2%; half-life [14]: 0.65 h; clearance [15]: 33 mL/min/kg; AUC(0-t) [16]: 509 ng·h/mL; Vd [17]: 0.9 L/kg; Cmax [18]: 64 ng/mL; half-life [19]: 3.8 h; AUC(0-t) [20]: 168 ng·h/mL; bioavailability [21]: 16%
CCc1sc2nc(-c3cccnc3)nc(N[C@H](C)C(=O)O)c2c1-c1cccc(Oc2ccc(F)cc2)c1	18	8.4	4.1	–
CCc1sc2ncnc(N[C@H](Cc3ccccc3)C(=O)O)c2c1-c1cccc(Oc2ccc(F)cc2)c1	24	51	24	–
